Where two headings read alike, the source gives them in different places. No end group written: not given here.
What was measured:
[1] = Preferential binding to carious lesions in teeth (CLSM); set-up: species or system human; settings: labeled peptide, settings optimized per sample
Experimental: FIG. 9: Fluorescence micrographs showing specific binding of DSS peptides and variants to carious lesions in teeth. Adult human teeth were exposed to 12.5 uM 5(6)-carboxyfluorescein-labeled peptide without demineralization, washed extensively, and imaged by CLSM. Microscope and camera settings were optimized separately for each sample. […] White traces on the right side of each panel identify the position of the tooth surface, while arrows indicate the position of the stained lesion.
Sections of human teeth containing obvious carious lesions, which consist of demineralized enamel, were polished and exposed to 5(6)-carboxyfluorescein-labeled DSS peptides and variants using the protocol described in Example 2. The sections were washed extensively and imaged by CLSM using blue laser illumination (λ=488 nm) and a FITC emission filter, with microscope and camera settings adjusted for each sample to optimize the signal detected from each peptide. The images were examined to identify the relative levels of peptide binding in healthy versus carious tissue. […] Given their ability to remineralize at sites of enamel degradation (Example 6), they can also be used to initiate remineralization at sites of enamel degradation such as caries or injury sites without causing inappropriate nucleation on healthy tissue surfaces.

[2] = Tissue specific binding of DSS peptides and variants in human teeth (CLSM); settings: 12.5 μM labeled peptide
Experimental: FIG. 8: Fluorescence micrographs showing tissue specificity in the binding of DSS peptides and variants. Adult human teeth were exposed to 12.5 μM 5(6)-carboxyfluorescein-labeled peptide without demineralization, washed extensively, and imaged by CLSM. For each section, multiple scans were collected and assembled in an automated mode to generate panels of images representing an area of 13×13 mm, sufficient in most cases to encompass the whole section. The peptides used for each section are labeled beneath each panel, and within each panel the tooth is oriented with the root toward the top of the image and the crown toward the bottom. Tissue layers are labeled as follows: RTD=Root Tip Dentin; CPD=Circumpulpal Dentin; MD=Mantle Dentin; P=Pulp Cavity Wall; DEJ=Dentin-Enamel Junction; E=Enamel; BE=Basal Enamel; CE=Cortical Enamel; CL=Carious Lesion; PB=Periodontal Bone.
In order to investigate the tissue specificity of DSS peptide binding to tooth tissue, sections of human teeth were exposed to DSS peptides and variants, then imaged by CLSM as described in Example 2. The peptides utilized for these experiments were 8DSS, 8ASS, 8DAA, 8NAA, 4DSS, 4ESS, 4NSS, 4DTT, 4ETT, 4NTT, and 6DSS. Sagittal sections of human teeth extracted during normal clinical practice were polished and then incubated for ten minutes in a solution of the appropriate 5(6) carboxyfluorescein-labeled peptide (12.5 μM) containing 10 mM NaCl and 50 mM HEPES, pH 7.0. Control samples were prepared without peptide. Samples were washed extensively after treatment and imaged by CLSM using blue laser illumination (λ=488 nm) and a FITC emission filter, with identical camera and microscope settings for each sample. For each section, multiple scans were collected and assembled in an automated mode to generate panels of images representing an area of 13×13 mm, sufficient in most cases to encompass the whole section. […] Significant binding was also seen to the edges of the pulp cavity.

[3] = system: mineralized mouse bone marrow nodules; assay: Binding to mineralized mouse bone marrow nodules (fluorescence microscopy); type: cell-based; settings: 2.5 μM 5(6)-carboxyfluorescein-labeled peptide, three weeks
Experimental: FIG. 2: Binding of 6DSS peptide to mineralized mouse bone marrow nodules (MBMNs). Mouse bone marrow cultures were grown to confluence, then treated for three weeks with 2.5 μM scrambled control peptide or 2.5 μM 6DSS. Cultures were imaged by fluorescence microscopy using a FITC filter set. A. Brightfield image of mineralized MBMNs from a culture treated with 6DSS. B. Fluorescence image of the field shown in (A). […] C. Brightfield image of mineralized MBMNs from a culture treated with scrambled control peptide. D. Fluorescence image of the field shown in (C), illustrating both the lack of binding of the control peptide to the MBMN's and the lack of autofluorescence within the sample. Mouse bone marrow cultures were grown to confluence in DMEM+10% FBS, then treated continuously for three weeks with either 2.5 μM 5(6)-carboxyfluorescein-labeled 6DSS or 2.5 μM 5(6)-carboxyfluorescein-labeled peptide #3-1 (scrambled control peptide, SEQ. ID NO. 24) in aMEM+10% FBS with 50 μg/mL ascorbic acid 4 mM β-glycerophosphate. Cultures were imaged by fluorescence microscopy using a FITC excitation/emission filter set, and both brightfield and fluorescence images were obtained.

[4] = Binding of labeled 6DSS to sagitally sectioned human teeth (CLSM)
Experimental: FIG. 1: Binding affinities of DSS and DSS variant peptides for hydroxyapatite and tooth surfaces. A-C. Fluorescein-labeled peptides at concentrations ranging from 0-100 μM were incubated with 0.3 mg of hydroxyapatite nanocrystals (specific surface area=100 m^2/g) for ten minutes, followed by removal of the hydroxyapatite by centrifugation. The amount of peptide in the mixture before and after hydroxyapatite removal was determined by Abs480. Isotherms were plotted and fit to the Langmuir equation to extract values for KA, a constant reflecting the affinity of the peptide for the hydroxyapatite surface. D. Sagitally sectioned human teeth were incubated with 12.5 μM 5(6) carboxyfluorescein-labeled 6DSS peptide for ten minutes, followed by rinsing. Peptide binding to tooth surfaces was visualized by Confocal Laser Scanning Microscopy (CLSM) using blue laser illumination (λA=488 nm) and a FITC emission filter. Left side, light colored region: dentin. Right side, dark colored region: enamel.
Control samples were prepared without peptide. Samples were rinsed after treatment and imaged by confocal laser scanning microscopy (CLSM) using blue laser illumination (excitation wavelength (λ)=488 nm) and a FITC emission filter.

[5] = system: Streptococcus mutans strain UA159; type: cell-based
From the text: In order to determine the suitability of DSS peptides to serve as targeting moieties to deliver therapeutic compounds to mineralized surfaces, peptides were synthesized containing an N-terminal (DSS)4, (DSS)5, or (DSS)6 peptide, a triglycine (GGG) linker, and a 2c-4 antimicrobial peptide (SEQ ID NO:26) (J. He, unpublished). The sequences of these fusion proteins are set forth in SEQ ID NOs:27-29, respectively. The antimicrobial activity of these peptides against anaerobic planktonic bacteria was determined by a modification of a previously described assay (Qi 2005). Briefly, Streptococcus mutans strain UA159 cells were diluted to ˜1×10^5 cfu/mL in Todd-Hewitt (TH) broth medium and mixed with either suspended hydroxyapatite nanocrystals (Berkeley Advanced Biomaterials, Inc., 0.03% w/v) or, for control samples, an equivalent volume of deionized water. Aliquots were transferred into 96-well plates (Fisher). Serial dilutions of the peptides were then made and added to the bacteria. […] Nonetheless, some antimicrobial activity is retained by this peptide.

## 6DSS: peptide containing six Asp-Ser-Ser (DSS) repeats, SEQ ID NO:14 (DSSDSSDSSDSSDSSDSS; calcium binding peptide containing six DSS repeats, 6DSS, (DSS)-6)
[1]
  Specificity of binding to carious lesions versus surrounding healthy enamel: highly specific binding to carious lesions
  Strength of staining of carious lesions: exceptionally strong staining of carious lesions
[2]; nondemineralized teeth
  Tissue binding pattern in healthy tooth section: bound primarily to the mantle dentin
[2]; ten minutes, identical settings
  Level of binding (staining) to tooth surfaces: greatest levels of staining
[3]
  Staining of mineralizing nodules: Strong staining
[4]; 12.5 μM 5(6) carboxyfluorescein-labeled peptide, ten minutes
  Fluorescent staining of tooth surface: Intense fluorescent staining
[4]; 12.5 μM labeled peptide, dentin versus enamel
  Location of peptide binding in tooth section: limited to the dentin

## DSSDSSDSSDSSGGGRWRWRWF [4DSS-2c4]
[5]; planktonic S. mutans, with 0.03% (w/v) hydroxyapatite, approximately 24 hours
  MIC: unaffected
[5]; strain UA159, 24 h
  MIC: 52.5 µM

## FHFHLHF [PL-135, reference compound]
[5]; strain UA159, 24 h
  MIC: 21 µM

## LKRFLKWFKRF [b-34, reference compound]
[5]; strain UA159, 24 h
  MIC: 5.6 µM

## RWRWRWF [2c-4, reference compound]
[5]; strain UA159, 24 h
  MIC: 2 µM

## peptide #3-1: scrambled control peptide, SEQ. ID NO. 24 (LIKHILHRL; scrambled control peptide #3-1) [reference compound]
[3]
  Staining of mineralizing nodules: No staining
